Counter-ions that a name gives are not always drawn.
Experiments:
[1] = Solubility of Cepharanthine salts in water; type: physicochemical
[2] = type: physicochemical
Experimental: A small amount of the sample (0.6 ml) was removed from each vial and centrifuged to collect 0.3 ml clear supernatant.
The sample was filtered through a 0.45 μm PTFE syringe filter and the filtrate sent for HPLC analysis (Table 10).

rat test animals = assay: Oral dosing of concentrated CEPN.2HCl water solutions in rats; type: in vivo; settings: ENG sample, concentrated water solution

Molecule | Sample solubility [2] | further results
COc1ccc2cc1Oc1ccc(cc1)C[C@H]1c3c(cc4c(c3Oc3cc5c(cc3OC)CCN(C)[C@@H]5C2)OCO4)CCN1C [HBr salt, Cepharanthine bis-hydrobromide] | – | solubility ([1]; read-out: Final Concentration (solubility in water)): 17.1 mg/mL
CEPN.2HCl [16-0203-012-097-27] | 31.9 mg/mL | –
CEPN.2HCl [16-0203-012-098-10] | 38.7 mg/mL | –
CEPN.2HCl [16-0203-012-098-27] | 39.7 mg/mL | –
CEPN.2HCl [16-0203-012-105-23] | 36.5 mg/mL | –
CEPN.2HCl [16-0203-012-119-35] | 33.9 mg/mL | –
Cepharanthine bis-pyruvate [Pyruvic acid salt] | – | Final Concentration (solubility in water) [1]: 488 mg/mL
Cepharanthine.2HCl [CEPN.2HCl] | – | Final Concentration (solubility in water) [1]: 51.6 mg/mL; Effect of oral dosing of concentrated water solutions (rat test animals): gelation in the stomach of the rat test animals and resultant toxic effects

— patent US10576077B2, “Pharmaceutical salt forms of Cepharanthine and Tetrandrine” (Southwest Research Institute, priority 2015, dated 2020)
